Results reported in patent publication US20260224538A1 (Purdue Research Foundation, priority 2023, published 2026).

Columns and labels:
Format in all cases: biochemical
Aβ1-40 = target: T1, Aβ1-40 (Homo sapiens, UniProt P05067); assay: ThT fluorescence assay of Aβ1-40 fibril formation; conditions: screen on prone-to-aggregate proteins (FIG. 4A); Aβ 7 μM
T1 construct: α-syn, Aβ1-40, Aβ1-42 were procured from rPeptide; purchased rPeptide
Protocol: (§1) Thioflavin-T (ThT) fluorescence assays. Thioflavin-T (ThT) fluorescence assays were used to monitor fibril formation of recombinant Ap (fragments 1-40 and 1-42), recombinant α-syn, recombinant tau isoform 2N4R, synthetic IAPP, and synthetic TTR peptides treated with BTA and its derivatives. The IAPP ThT assay was performed in 10 mM PBS (pH 7.4) at a final concentration of 10 μM for both IAPP and ThT as published previously. Aβ fragments 1-40 and 1-42 were tested at 7 μM in 10 mM of PBS using ThT at a final concentration of 20 μM. Kinetics of α-syn fibrillization were performed as published previously.^36-37 TTR fragment kinetics of fibril formation were assessed at 10 μM in 100 mM sodium acetate buffer supplemented with 100 mM KCl and 1 mM ethylenediaminetetraacetic acid (EDTA) (pH 4) with 20 μM ThT. The fluorescence emission experiments were performed with the excitation and emission wavelengths set at 440 and 485 nm, respectively, with a Synergy HT multi-mode microplate reader (BioTek, Winooski, VT). Samples were measured in three replicates, and the experiments were repeated three times using at least two different stock solutions. For each time point, arbitrary units of fluorescence were calculated from the mean values normalized against the maximum value in each completed assay. The lag time for each condition was calculated as previously described. […]

[1] = target: T2, islet amyloid polypeptide (IAPP) (Homo sapiens, UniProt P10997); assay: ThT fluorescence assay of IAPP fibril formation; conditions: screen on prone-to-aggregate proteins (FIG. 2A, FIG. 4A); IAPP 10 μM
T2 construct: Human islet amyloid polypeptide (IAPP) was procured from AnaSpec; purchased AnaSpec; host or cells: synthetic peptide
T2 sequence (P10997 34-70 limits assumed): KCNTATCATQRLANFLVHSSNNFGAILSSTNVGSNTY
Protocol: as §1

[2] = target: T3, transthyretin fragment peptide (TTR81-127) (Homo sapiens, UniProt P02766); assay: ThT fluorescence assay of TTR81-127 fibril formation
T3 construct: TTR fragment 81-127 was obtained from AnaSpec; purchased AnaSpec; host or cells: synthetic peptide
Protocol: (§2) Thioflavin-T (ThT) fluorescence assays. Thioflavin-T (ThT) fluorescence assays were used to monitor fibril formation of recombinant Ap (fragments 1-40 and 1-42), recombinant α-syn, recombinant tau isoform 2N4R, synthetic IAPP, and synthetic TTR peptides treated with BTA and its derivatives. The IAPP ThT assay was performed in 10 mM PBS (pH 7.4) at a final concentration of 10 μM for both IAPP and ThT as published previously. Aβ fragments 1-40 and 1-42 were tested at 7 μM in 10 mM of PBS using ThT at a final concentration of 20 μM. Kinetics of α-syn fibrillization were performed as published previously.^36-37 TTR fragment kinetics of fibril formation were assessed at 10 μM in 100 mM sodium acetate buffer supplemented with 100 mM KCl and 1 mM ethylenediaminetetraacetic acid (EDTA) (pH 4) with 20 μM ThT. The fluorescence emission experiments were performed with the excitation and emission wavelengths set at 440 and 485 nm, respectively, with a Synergy HT multi-mode microplate reader (BioTek, Winooski, VT). Samples were measured in three replicates, and the experiments were repeated three times using at least two different stock solutions. For each time point, arbitrary units of fluorescence were calculated from the mean values normalized against the maximum value in each completed assay. The lag time for each condition was calculated as previously described. All results contained in histograms were presented as mean±SEM. Data were analyzed by the one-way analysis of variance with Dunnett's multiple comparisons between controls and compounds. Differences were considered statistically significant at p<0.05.

TTR101-125 = target: T4, TTR101-125 (Homo sapiens, UniProt P02766); assay: ThT fluorescence assay of TTR101-125 fibril formation; conditions: screen on prone-to-aggregate proteins (FIG. 4A)
T4 construct: TTR fragments 1-25, 26-50, 51-75, 76-100, 81-105, 101-125, and 101-125 were obtained from GenScript; purchased GenScript; host or cells: synthetic peptide
Protocol: as §2

tau isoform 2N4R = target: T5, tau isoform 2N4R (Homo sapiens, UniProt P10636); assay: PICUP, tau isoform 2N4R oligomerization; conditions: compound 50 μM
T5 construct: made in house; host or cells: E. coli BL21(DE3)
T5 sequence (P10636 1-441 isoform P10636-8): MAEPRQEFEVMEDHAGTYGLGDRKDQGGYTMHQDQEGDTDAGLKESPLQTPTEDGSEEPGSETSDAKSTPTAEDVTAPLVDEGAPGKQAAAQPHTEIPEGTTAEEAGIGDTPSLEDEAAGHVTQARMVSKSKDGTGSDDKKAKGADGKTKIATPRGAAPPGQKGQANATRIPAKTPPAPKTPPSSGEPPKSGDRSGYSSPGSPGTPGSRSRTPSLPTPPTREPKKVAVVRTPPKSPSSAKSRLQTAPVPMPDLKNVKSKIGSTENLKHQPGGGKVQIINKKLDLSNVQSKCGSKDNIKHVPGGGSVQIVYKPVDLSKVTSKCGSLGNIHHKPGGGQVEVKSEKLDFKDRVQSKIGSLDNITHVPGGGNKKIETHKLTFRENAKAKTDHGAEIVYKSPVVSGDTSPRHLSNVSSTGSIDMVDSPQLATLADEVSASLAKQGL
Protocol: The bacterial expression plasmid consisting of the vector pRK172 carrying a cDNA encoding the human Tau 2N4R isoform was obtained from Dr. David Eliezer (Weill Cornell Medicine, New York, NJ). For protein expression, E. coli BL21(DE3) cells were transformed with the plasmid and grown in LB media supplemented with ampicillin (100 μg/mL). Protein over-expression was induced by the addition of 1 mM IPTG for 4 hours at 37° C., and cells were pelleted by centrifugation at 6,000 g for 15 minutes at 4° C. The cells were resuspended in lysis buffer (20 mM MES, 400 mM NaCl, 0.2 mM MgCl2, 1 mM EGTA, protease inhibitor cocktail (P8340, Sigma Aldrich), 0.25 mg/mL lysozyme, and 1 μg/mL DNase 1, pH 6.8) and lysed by a French press cell disruptor at 4° C., after which the lysate was boiled for 20 minutes. Denatured proteins were pelleted by centrifugation at 30,000 g for 30 minutes at 4° C., and the supernatant was dialyzed overnight against cation exchange buffer (20 mM MES, 50 mM NaCl, 1 mM MgCl2, 1 mM EGTA, 2 mM DTT, 0.1 mM PMSF, pH 6.8). The dialysate was loaded onto a HiPrep SP HP column, and proteins were eluted with a linear gradient ranging from 50 mM to 1 M NaCl. Fractions containing tau isoform 2N4R were pooled, and the resulting protein solution was dialyzed against PBS (pH 7.4) and stored at −80° C.
(§3) Photo-induced Cross-linking of Unmodified Proteins (PICUP) Assay. To induce oligomerization by cross-linking, α-syn (from Rpeptide, LLC) and tau isoform 2N4R were diluted in 10 mM phosphate buffer (pH 7.4) to reach a final concentration of 10 μM. Different compounds were added to the protein solution at a final concentration of 50 μM, resulting in a molar ratio of 1:5. To confirm the gradual effect of the compounds on the inhibition of α-syn oligomerization, the compounds were tested at final concentrations of 3.125, 6.25, 12.5, 25, and 50 μM. The controls consisted of samples without light exposition, without Ru(bpy) or ammonium persulfate, and without compound (i.e., 0.125% DMSO). The cross-linking reaction was initiated by the addition of 2 μL of Ru(bpy) (300 μM final concentration) and 2 μL ammonium persulfate (6 mM final concentration). Samples were irradiated immediately. Light exposure was of a one-second duration for α-syn and a three-second duration for tau isoform 2N4R, with a 53 W (120 V) incandescent lamp installed in a homemade dark-box. Each tube contained a final volume of 20 μL. After irradiation, 8.3 μL of Laemmli loading buffer containing 15% β-mercaptoethanol were immediately added to the solution, followed by incubation at 95° C. for 10 minutes. The cross-linked samples were separated on a 16% SDS-PAGE gel and visualized by Coomassie blue staining.

α-syn = target: T6, α-syn (Homo sapiens, UniProt P37840); assay: Photo-induced cross-linking of unmodified proteins (PICUP), α-syn oligomerization; conditions: compound 50 μM, molar ratio 1:5 (protein:compound)
T6 construct: purchased rPeptide
Protocol: as §3

Aβ1-42 = target: T7, Aβ1-42 (Homo sapiens, UniProt P05067); assay: ThT fluorescence assay of Aβ1-42 fibril formation; conditions: screen on prone-to-aggregate proteins (FIG. 2A, FIG. 4A); Aβ 7 μM
T7 construct: α-syn, Aβ1-40, Aβ1-42 were procured from rPeptide; purchased rPeptide
T7 sequence (P05067 672-713 limits assumed): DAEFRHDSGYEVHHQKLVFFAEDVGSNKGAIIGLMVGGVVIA
Protocol: as §2

α-synuclein (α-syn) = target: T8, α-synuclein (α-syn) (Homo sapiens, UniProt P37840); assay: Thioflavin-T (ThT) fluorescence assay of α-syn fibril formation
T8 construct: purchased rPeptide
Protocol: as §2
Compounds with the highest anti-fibrillary activity were tested at 3.125, 6.25, 12.5, 25, 50, and 100 μM to obtain dose-response curves with prepared α-syn and 2N4R tau at 6.25 μM and 6 μM, respectively. Compounds were tested with α-syn using a previously published procedure. Concerning the tau (isoform 2N4R) kinetics of fibril formation, measurements of ThT fluorescence were performed with a solution of the protein diluted to a final concentration of 6 μM in PBS (pH 7.4) supplemented with 1.5 μM heparin, 20 μM ThT, 2.5 mM DTT, and 100 μM compound. Aliquots of the diluted protein solution (100 μL each) were pipetted into the wells of a 96-well plate, and a Teflon ball was added to each well. The plate was incubated at 37° C. with constant shaking at 1,000 rpm in a Tecan Spark plate reader. ThT fluorescence was measured every 15 minutes with excitation and emission wavelengths of 440 nm and 480 nm, and the data were plotted using GraphPad Prism.

[3] = screen on prone-to-aggregate proteins (FIG. 2A, FIG. 4A)

T1 sequence (P05067 672-711 limits assumed): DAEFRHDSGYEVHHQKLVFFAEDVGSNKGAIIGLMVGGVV

thioflavin T fluorescence intensity, Aβ1-40 (Aβ1-40): greater than 100%
thioflavin T fluorescence intensity, IAPP [1]: greater than 100%
remaining activity at 100 µM ([2]; compounds at 100 μM, TTR81-127 10 μM, control 0.25% DMSO, read-out: ThT TTR81-127 (%), maximum thioflavin T (ThT) intensity in percentage): > 100%
thioflavin T fluorescence intensity, TTR81-127 [2, 3]: greater than 100%
thioflavin T fluorescence intensity, TTR101-125 (TTR101-125): greater than 100%
thioflavin T fluorescence intensity, Aβ1-42 (Aβ1-42): greater than 100%
remaining activity at 100 µM (α-synuclein (α-syn); compounds at 100 μM, α-syn 6.25 μM, control 0.25% DMSO, read-out: ThT a-Syn (%), maximum thioflavin T (ThT) intensity in percentage): > 100%
thioflavin T fluorescence intensity, α-syn (α-synuclein (α-syn); [3]): greater than 100%
SMILES: Clc1nc(Cl)nc(Nc2ccc(-c3nc4ccccc4s3)cc2)n1 [Compound 5, N-[4-(1,3-benzothiazol-2-yl)phenyl]-4,6-dichloro-1,3,5-triazin-2-amine]
tau isoform 2N4R oligomer formation (PICUP) (tau isoform 2N4R): high molecular weight bands representing the oligomeric species
α-syn oligomer formation (PICUP) (α-syn): high molecular weight bands representing the oligomeric species
